PubChem BioAssay AID248 (DTP/NCI, 2004)
Toxic doses and inconclusive results are not listed. No stated cut-off is given here; in the data, active means T/C of 150% or more; inactive means T/C below 125%.

Test system: L1210 leukemia ip in BDF1 mice, survival T/C
Assay: NCI In Vivo Anticancer Drug Screen. Data for tumor model L1210 Leukemia (intraperitoneal) in B6D2F1 (BDF1) mice
Conditions: endpoint: mean survival time, higher = longer survival
Method in brief: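 Ratio derived from survival: compound-dosed mice over vehicle-dosed mice, all bearing a transplantable tumor.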

[1] = dose: 100.0 mg/kg/injection, schedule: Q01DX001 (ip), vehicle: Klucel (hydroxypropylcellulose) (HPC)
[2] = dose: 200.0 mg/kg/injection, schedule: Q01DX001 (ip), vehicle: Klucel (hydroxypropylcellulose) (HPC)
[3] = dose: 100.0 mg/kg/injection, schedule: Q01DX009 (ip), vehicle: saline with Tween-80
[4] = dose: 200.0 mg/kg/injection, schedule: Q01DX009 (ip), vehicle: saline with Tween-80
[5] = dose: 100.0 mg/kg/injection, schedule: Q04DX002 (ip), vehicle: Klucel (hydroxypropylcellulose) (HPC)
[6] = dose: 200.0 mg/kg/injection, schedule: Q04DX002 (ip), vehicle: Klucel (hydroxypropylcellulose) (HPC)
[7] = dose: 400.0 mg/kg/injection, schedule: Q04DX002 (ip), vehicle: Klucel (hydroxypropylcellulose) (HPC)
[8] = dose: 100.0 mg/kg/injection, schedule: Q01DX001 (ip), vehicle: saline
[9] = dose: 200.0 mg/kg/injection, schedule: Q01DX001 (ip), vehicle: saline
[10] = dose: 400.0 mg/kg/injection, schedule: Q01DX001 (ip), vehicle: saline

Measured: T/C

N#[N+]c1ccc(Br)cc1-c1nc(N)c2cc(Br)ccc2n1
inactive: dose: 50.0 mg/kg/injection, schedule: Q01DX001 (ip), vehicle: Klucel (hydroxypropylcellulose) (HPC) 94 % of control | [1] 105 % of control | [2] 105 % of control

O=C1/C(=C/c2ccncc2)CCCc2ccccc21
inactive: dose: 6.25 mg/kg/injection, schedule: Q04DX003 (ip), vehicle: Klucel (hydroxypropylcellulose) (HPC) 98 % of control | dose: 12.5 mg/kg/injection, schedule: Q04DX003 (ip), vehicle: Klucel (hydroxypropylcellulose) (HPC) 97 % of control | dose: 25.0 mg/kg/injection, schedule: Q04DX003 (ip), vehicle: Klucel (hydroxypropylcellulose) (HPC) 97 % of control | dose: 200.0 mg/kg/injection, schedule: Q04DX003 (ip), vehicle: carboxymethylcellulose (CMC) 100 % of control

OCC1OC(n2cnc3c(NCCCCNc4ncnc5c4ncn5C4OC(CO)C(O)C4O)ncnc32)C(O)C1O (stereo unspecified)
inactive: dose: 100.0 mg/kg/injection, schedule: Q01DX005 (ip), vehicle: saline 100 % of control | dose: 200.0 mg/kg/injection, schedule: Q01DX005 (ip), vehicle: saline 108 % of control

CCN1CCC2CN(C(=N)N)CCN2C1=O (stereo unspecified)
inactive: dose: 100.0 mg/kg/injection, schedule: Q04DX003 (ip), vehicle: saline 101 % of control | dose: 200.0 mg/kg/injection, schedule: Q04DX003 (ip), vehicle: saline 103 % of control | dose: 400.0 mg/kg/injection, schedule: Q04DX003 (ip), vehicle: saline 116 % of control

N#CCCN(NC(=O)OCc1ccccc1)C(=O)OCc1ccccc1
inactive: dose: 100.0 mg/kg/injection, schedule: Q01DX001 (ip), vehicle: carboxymethylcellulose (CMC) 95 % of control | dose: 200.0 mg/kg/injection, schedule: Q01DX001 (ip), vehicle: carboxymethylcellulose (CMC) 89 % of control | dose: 400.0 mg/kg/injection, schedule: Q01DX001 (ip), vehicle: carboxymethylcellulose (CMC) 95 % of control

O=C(O)C1(Cl)CC2C=CC1C2 (stereo unspecified)
inactive: dose: 50.0 mg/kg/injection, schedule: Q01DX009 (ip), vehicle: gum acacia 99 % of control | dose: 50.0 mg/kg/injection, schedule: Q01DX009 (ip), vehicle: saline with Tween-80 93 % of control | dose: 100.0 mg/kg/injection, schedule: Q01DX009 (ip), vehicle: gum acacia 89 % of control | [3] 96 % of control | dose: 100.0 mg/kg/injection, schedule: Q04DX003 (ip), vehicle: gum acacia 101 % of control | dose: 100.0 mg/kg/injection, schedule: Q04DX003 (ip), vehicle: saline with Tween-80 93 % of control | dose: 200.0 mg/kg/injection, schedule: Q01DX009 (ip), vehicle: gum acacia 92 % of control | [4] 94 % of control | dose: 200.0 mg/kg/injection, schedule: Q04DX003 (ip), vehicle: gum acacia 95 % of control | dose: 200.0 mg/kg/injection, schedule: Q04DX003 (ip), vehicle: saline with Tween-80 91 % of control

CCCCCCCCCCCCCCCCCCCC(=O)COS(C)(=O)=O
inactive: [5] 88 % of control | [6] 88 % of control | [7] 88 % of control

CCN(CC)c1cccc(OC(=O)Nc2ccc(SC)cc2)c1
inactive: [3] 95 % of control | [4] 103 % of control | dose: 400.0 mg/kg/injection, schedule: Q01DX009 (ip), vehicle: saline with Tween-80 97 % of control

CSc1ccccc1C1CCCCCC1OS(=O)(=O)c1ccc(C)cc1 (stereo unspecified)
inactive: dose: 15.0 mg/kg/injection, schedule: Q01DX001 (ip), vehicle: carboxymethylcellulose (CMC) 96 % of control | dose: 30.0 mg/kg/injection, schedule: Q01DX001 (ip), vehicle: carboxymethylcellulose (CMC) 102 % of control

O=C(/C=C\c1ccccc1)OCc1ccccc1CN1CCCCC1
inactive: [5] 108 % of control | [6] 116 % of control | [7] 90 % of control

O=[N+]([O-])c1ccc(O)c(N=Cc2ccccn2)c1
inactive: [8] 90 % of control | [9] 90 % of control | [10] 100 % of control

COC(=O)[C@H]1[C@H]2C[C@@H]3c4[nH]c5cc(OC)ccc5c4CCN3C[C@H]2C[C@@H](OC(=O)c2cc(OC)c(OC)c(OC)c2)[C@@H]1OC
inactive: dose: 1.0 mg/kg/injection, schedule: Q01DX Z (ip), vehicle: carboxymethylcellulose (CMC) 100 % of control | dose: 1.56 mg/kg/injection, schedule: Q01DX001 (ip), vehicle: other 100 % of control | dose: 1.56 mg/kg/injection, schedule: Q01DX009 (ip), vehicle: saline 111 % of control | dose: 1.56 mg/kg/injection, schedule: Q04DX003 (ip), vehicle: other 95 % of control | dose: 2.0 mg/kg/injection, schedule: Q01DX Z (ip), vehicle: carboxymethylcellulose (CMC) 100 % of control | dose: 3.12 mg/kg/injection, schedule: Q01DX001 (ip), vehicle: other 96 % of control | dose: 3.12 mg/kg/injection, schedule: Q01DX009 (ip), vehicle: saline 109 % of control | dose: 3.12 mg/kg/injection, schedule: Q04DX003 (ip), vehicle: other 95 % of control | dose: 5.0 mg/kg/injection, schedule: Q01DX001 (ip), vehicle: other 92 % of control | dose: 5.25 mg/kg/injection, schedule: Q01DX009 (ip), vehicle: other 98 % of control | dose: 6.25 mg/kg/injection, schedule: Q01DX001 (ip), vehicle: other 96 % of control | dose: 6.25 mg/kg/injection, schedule: Q01DX009 (ip), vehicle: saline 101 % of control | dose: 6.25 mg/kg/injection, schedule: Q04DX003 (ip), vehicle: other 115 % of control | dose: 6.25 mg/kg/injection, schedule: Q04DX003 (ip), vehicle: saline 90 % of control | dose: 9.2 mg/kg/injection, schedule: Q04DX003 (ip), vehicle: other 101 % of control | dose: 10.0 mg/kg/injection, schedule: Q01DX001 (ip), vehicle: other 100 % of control | dose: 12.5 mg/kg/injection, schedule: Q01DX001 (ip), vehicle: carboxymethylcellulose (CMC) 103 % of control | dose: 12.5 mg/kg/injection, schedule: Q01DX009 (ip), vehicle: saline 104 % of control | dose: 12.5 mg/kg/injection, schedule: Q04DX003 (ip), vehicle: saline 108 % of control | dose: 14.0 mg/kg/injection, schedule: Q04DX003 (ip), vehicle: other 88 % of control | dose: 20.0 mg/kg/injection, schedule: Q01DX001 (ip), vehicle: other 97 % of control | dose: 21.0 mg/kg/injection, schedule: Q04DX003 (ip), vehicle: other 95 % of control | dose: 25.0 mg/kg/injection, schedule: Q01DX009 (ip), vehicle: saline 92 % of control | dose: 25.0 mg/kg/injection, schedule: Q04DX003 (ip), vehicle: saline 103 % of control | dose: 40.0 mg/kg/injection, schedule: Q01DX001 (ip), vehicle: other 97 % of control | dose: 80.0 mg/kg/injection, schedule: Q01DX001 (ip), vehicle: other 94 % of control

CC(C)CC(=O)Cc1ccccc1
inactive: [8] 105 % of control | [9] 105 % of control | [10] 105 % of control

CCc1nc(NN)nc(CC)c1-c1ccccc1O
inactive: [5] 105 % of control | [6] 91 % of control

NC(=O)SCC(=O)NNc1ccccc1
inactive: dose: 75.0 mg/kg/injection, schedule: Q01DX001 (ip), vehicle: other 90 % of control | dose: 150.0 mg/kg/injection, schedule: Q01DX001 (ip), vehicle: other 98 % of control | dose: 300.0 mg/kg/injection, schedule: Q01DX001 (ip), vehicle: other 100 % of control

CC(=O)CC(=O)Nc1cccc(NC(=O)CC(C)=O)c1
inactive: [1] 99 % of control | [2] 94 % of control | dose: 400.0 mg/kg/injection, schedule: Q01DX001 (ip), vehicle: Klucel (hydroxypropylcellulose) (HPC) 101 % of control
